Test results from patent US11413269B2, “Compositions for improved NRF2 activation and methods of their use” (PATHWAYS BIOSCIENCE, LLC, priority 2015, dated 2022).

System: Nrf2
Test: ARE-driven luciferase promoter/reporter assay in stably transfected cell lines
Format: cell-based, human
Settings: low concentrations
Experimental: Briefly, the stably transfected cells of types HepG2 (human liver), AREc32 (human breast), MCF7 (human breast), A549 (human lung), 293T (human kidney), and A172 (human brain) were seeded at low density in 24-well plates and incubated at 37° C. with 10% CO2. […] After an additional 18 h of incubation, the cells were lysed in their wells with 100 μl of a lysing buffer that contains 3.5 mM sodium pyrophosphate to stabilize light output by luciferase. A 20 μl aliquot of cell lysate was added to a small test tube, placed in a BD Monolight 3010 luminometer for background luminescence, and then 50 μl of 1 mM luciferin was injected into the tube. Relative Light Units integrated for 10 sec were measured for each sample.

O=c1cc(-c2ccc(O)c(O)c2)oc2cc(O)cc(O)c12 [Luteolin, luteolin]
synergy with combinations of Rosemary extracts and Ginger extracts to activate Nrf2: synergized
